System: patients suffering from cancer, chronic liver diseases (liver fibrosis) and mild Alzheimer's disease/dementia
Test: Phase II clinical studies (Example 12.1-12.4): safety, toxicity (CTC), Quality of Life, immune functions
Assay type: in vivo, human
Text: According to the example No. 12 in this invention, the safety, efficacy and Quality of Life (QoL) of CHP as monotherapy have been investigated in patients suffering from cancer, chronic liver diseases (liver fibrosis) and mild Alzheimer's disease/dementia The following four (4) ICH-GCP
Title: Phase II—CHP as antitumour agent in patients with resected colorectal cancer and liver metastasis; 60 patients—Study IPSS-A04 (Example 12.1).
Title: Phase II—CHP in patients with locally advanced or metastatic pancreatic cancer—14 patients Study IPSS B013 (Example 12.2).
Title: Evaluation of safety and efficacy of CHP in patients with urogenital Cancer—25 patients—Study IPSS-D002 (Example 12.3).
Title: Phase II—CHP in patients with chronic viral hepatitis, chronic alcohol liver diseases without cirrhosis or primary sclerosing cholangitis 45 patients—Study IPSS-B025 (Example 12.4).
According to the examples in this invention, the objectives of these studies were: • Assessment the efficacy and safety of CHP as monotherapy have been investigated in patients suffering from cancer, chronic liver diseases (liver fibrosis) and mild Alzheimer's disease/dementia.
The following validated evaluation systems have been used: • 1. Evaluation of Quality of Life as measured by the FACT questionnaires. • 2. Evaluation of the toxicity and safety of CHP treatment as measured by the Common Toxicity Criteria CTC. • Subjective assessments mild Alzheimer' patients: Overall physical conditions, Cognitive conditions, Quality of Life (QoL)
According to the study protocols for the performance of these studies, oral and intravenous CHP as monotherapy have been administered to the patients at high doses e.g. 8 gram/day for approximately 180 consecutive days. A number of patients have received the medication for approximately 18 months as mono therapy.

O=C(O)[C@@H]1C[C@H](O)CN1 [CHP, cis-4-hydroxy-L-proline]
Immunological activities (Examples 12.1-12.4): increase of the immunological activities of interleukin-2, Interleukin-12, and Interferon-alpha
Patients' Quality of Life (QoL questionnaires) (Phase II clinical studies): improved drastically
Toxicity and safety as measured by the Common Toxicity Criteria CTC (Phase II clinical studies): has not cause any nephrotoxicity, neurotoxicity, hepatotoxicity, cardiotoxicity and/or laboratory abnormalities
Side effects observed (Phase II clinical studies, CHP monotherapy): Only mild side effects such as nausea and/or vomiting
Tolerability (all clinical studies, mostly patients over 60 years, e.g. 8 gram/day for approximately 180 consecutive days, oral and intravenous monotherapy): excellent tolerability
Drug-drug interactions on co-administration with drugs used by the patients (mostly elderly patients): no drug-drug interactions have been observed
